{"source": "paper PMC12584752", "about": "“Covalent fragment screening to inhibit the E3 ligase activity of bacterial NEL enzymes SspH1 and SspH2” (RSC Chemical Biology, 2025)", "conditions_in_all_cases": "live HEK293T cells, 50 μM, four hours", "key": {"[1]": {"tested_on": "mammalian proteins in HEK293T cells", "assay": "In cellulo IA-DTB chemoproteomics, off-target engagement", "assay_type": "cell-based, human", "experimental": "(§1) Fig. 5 Characterisation of protein interactions by compounds 6 and 7. (A) SspH1 and SspH2 catalytic cysteine labelling with compound 6 (100–3.125 μM, 4 hours) in HEK293T lysate spiked with recombinant SspH1 and SspH2. Data are presented as mean ± SEM, n = 4. The curves were fitted with GraphPad Prism 10 using four parameter nonlinear regression with baseline correction to DMSO-treated samples. (B) SspH1 and SspH2 catalytic cysteine labelling with compound 7 (100–3.125 μM, 4 hours) in HEK293T lysate spiked with recombinant SspH1 and SspH2. Data are presented as mean ± SEM, n = 4. The curves were fitted with GraphPad Prism 10 using four parameter nonlinear regression with baseline correction to DMSO-treated samples. (C) Volcano plot of IA-DTB competition in SspH1 expressing HEK293T cells treated with compound 6 (50 μM, 4 hours). (D) Volcano plot of IA-DTB competition in SspH2 expressing HEK293T cells treated with compound 6 (50 μM, 4 hours). Data is shown as compared to DMSO treated samples, with competed peptides in the upper left-hand quadrant. […]\n(§2) All cells were grown in DMEM media (Gibco, 41966-029) supplemented with FBS (ThermoFisher, A5256701) and Pen/Strep (Gibco, 15140-122) at 37 °C with 5% CO2. […] Protein concentrations were measured using a Rapid BCA Gold Protein Assay Kit (Thermo Scientific, A53226) and diluted to 1 mg mL^−1 with lysis buffer. […]"}, "[2]": {"target": "T1, SspH2 expressed in HEK293T cells (Salmonella typhimurium, UniProt D0ZPH9)", "T1 construct": "SspH1 (aa 1–700) and SspH2 (aa 1–786) genes were cloned separately; expressed in transfected cells; host or cells: HEK293T", "T1 sequence (D0ZPH9 1-786)": "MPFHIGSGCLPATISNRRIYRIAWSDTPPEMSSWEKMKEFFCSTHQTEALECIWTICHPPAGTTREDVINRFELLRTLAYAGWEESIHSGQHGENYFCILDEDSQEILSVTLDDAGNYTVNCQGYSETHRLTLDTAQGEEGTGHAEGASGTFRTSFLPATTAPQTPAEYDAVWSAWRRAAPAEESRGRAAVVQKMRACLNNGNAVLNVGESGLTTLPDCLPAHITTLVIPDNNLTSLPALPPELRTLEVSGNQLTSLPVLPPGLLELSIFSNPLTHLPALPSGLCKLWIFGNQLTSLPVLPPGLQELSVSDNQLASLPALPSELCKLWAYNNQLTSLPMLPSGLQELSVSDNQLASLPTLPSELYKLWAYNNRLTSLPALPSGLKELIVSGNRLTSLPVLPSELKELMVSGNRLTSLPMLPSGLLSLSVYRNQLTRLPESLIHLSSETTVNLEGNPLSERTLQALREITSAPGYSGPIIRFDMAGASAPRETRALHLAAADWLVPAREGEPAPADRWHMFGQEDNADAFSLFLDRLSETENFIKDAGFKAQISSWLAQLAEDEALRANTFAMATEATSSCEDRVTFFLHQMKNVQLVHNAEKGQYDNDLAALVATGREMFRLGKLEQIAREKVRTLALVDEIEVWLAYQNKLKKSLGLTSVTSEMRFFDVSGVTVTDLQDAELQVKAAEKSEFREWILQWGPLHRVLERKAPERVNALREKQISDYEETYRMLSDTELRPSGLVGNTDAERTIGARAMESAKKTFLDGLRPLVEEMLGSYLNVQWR", "assay": "In cellulo target engagement, IA-DTB chemoproteomics", "assay_type": "cell-based", "experimental": "as §1, §2"}, "[3]": {"target": "T2, SspH1 expressed in HEK293T cells (Salmonella typhimurium, UniProt D0ZVG2)", "T2 construct": "SspH1 (aa 1–700) and SspH2 (aa 1–786) genes were cloned separately; expressed in transfected cells; host or cells: HEK293T", "T2 sequence (D0ZVG2 whole entry, the tested form may be a part)": "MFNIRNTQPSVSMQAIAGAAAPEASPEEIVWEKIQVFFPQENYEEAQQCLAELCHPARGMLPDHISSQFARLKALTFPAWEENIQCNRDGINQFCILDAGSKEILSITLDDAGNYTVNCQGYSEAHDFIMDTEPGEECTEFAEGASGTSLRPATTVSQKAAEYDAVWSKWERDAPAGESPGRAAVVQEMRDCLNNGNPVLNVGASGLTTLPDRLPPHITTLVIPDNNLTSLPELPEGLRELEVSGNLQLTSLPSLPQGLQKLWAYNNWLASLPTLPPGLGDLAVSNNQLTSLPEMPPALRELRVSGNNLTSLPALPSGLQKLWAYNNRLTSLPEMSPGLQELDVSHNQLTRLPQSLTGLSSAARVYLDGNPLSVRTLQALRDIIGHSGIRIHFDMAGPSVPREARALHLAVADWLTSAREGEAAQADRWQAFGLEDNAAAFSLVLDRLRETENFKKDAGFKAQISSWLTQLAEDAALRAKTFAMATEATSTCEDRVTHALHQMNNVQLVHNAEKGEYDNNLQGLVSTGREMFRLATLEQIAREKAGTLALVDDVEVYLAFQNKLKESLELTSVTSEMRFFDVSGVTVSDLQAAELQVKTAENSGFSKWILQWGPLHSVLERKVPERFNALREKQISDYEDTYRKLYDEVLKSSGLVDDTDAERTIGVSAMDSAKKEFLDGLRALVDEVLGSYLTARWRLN", "assay": "In cellulo target engagement, IA-DTB chemoproteomics", "assay_type": "cell-based", "experimental": "as §1, §2"}}, "data": [{"compound": "Cc1cc(-c2nc3ccccc3n2C2CCN(C(=O)CCl)CC2)cc(C)c1O.Cl", "note": "[compound 6]", "values": [{"measurement": "engagement of catalytic cysteines-containing peptides of HECT or RBR E3 ligases, or DUBs", "setting": "[1]", "value": "none"}, {"measurement": "engagement of mammalian proteins", "setting": "[1]", "value": "engagement of multiple mammalian proteins"}, {"measurement": "competition of IA-DTB labelling of C580 peptide of SspH2", "setting": "[2]", "value": "strong competition"}, {"measurement": "competition of IA-DTB labelling of catalytic cysteine C492 peptide of SspH1", "setting": "[3]", "value": "strong competition"}]}]}
